From PubChem BioAssay (NCI)
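Where inhibition never reached the appropriate level, the endpoint shown equals the highest concentration tested. Otherwise, values were interpolated linearly from a five-concentration, 48-hour dose response in 96-well plates. GI50 is the concentration that inhibits growth by half. TGI: total growth inhibition.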

Tests used:
Experiment in all cases: NCI tumour cell line growth inhibition, 48 h
A549 NSCLC = test system: A549 NSCLC
HCT-15 colon = test system: HCT-15 colon
NCI/ADR-RES ovarian = test system: NCI/ADR-RES ovarian
RPMI-8226 leukemia = test system: RPMI-8226 leukemia
M14 melanoma = test system: M14 melanoma
NCI-H460 lung = test system: NCI-H460 lung
SN12C renal = test system: SN12C renal
ACHN renal = test system: ACHN renal
IGROV1 ovarian = test system: IGROV1 ovarian
SNB-19 CNS = test system: SNB-19 CNS
KM12 colon = test system: KM12 colon
HL-60(TB) leukemia = test system: HL-60(TB) leukemia
NCI-H23 lung = test system: NCI-H23 lung
SW-620 colon = test system: SW-620 colon
UO-31 renal = test system: UO-31 renal
RXF 393 renal = test system: RXF 393 renal
TK-10 renal = test system: TK-10 renal
UACC-62 melanoma = test system: UACC-62 melanoma
MCF7 breast = test system: MCF7 breast
UACC-257 melanoma = test system: UACC-257 melanoma
HS 578T breast = test system: HS 578T breast
DU-145 prostate = test system: DU-145 prostate
SF-268 CNS = test system: SF-268 CNS
A498 renal = test system: A498 renal
LOX IMVI melanoma = test system: LOX IMVI melanoma

Q: `COc1cc(/C=C2\C[C@H]3[C@@H]4CC=C5C[C@@H](O)CC[C@]5(C)[C@H]4CC[C@]3(C)[C@H]2O)ccc1OCCN1CCCC1` was tested. Which GI50 (A549 NSCLC) did it give?
A: 10.9 µM

Q: And the TGI (A549 NSCLC)?
A: 21.6 µM

Q: And the GI50 (HCT-15 colon)?
A: 11.8 µM

Q: What about the TGI (HCT-15 colon) of the same compound?
A: 38 µM

Q: And the GI50 (NCI/ADR-RES ovarian)?
A: 12.6 µM

Q: What about the TGI (NCI/ADR-RES ovarian) of the same compound?
A: 34.7 µM

Q: What about the GI50 (RPMI-8226 leukemia) of the same compound?
A: 5.53 µM

Q: And the TGI (RPMI-8226 leukemia)?
A: 25.5 µM

Q: And the GI50 (M14 melanoma)?
A: 8.16 µM

Q: And the TGI (M14 melanoma)?
A: 18.3 µM

Q: And the GI50 (NCI-H460 lung)?
A: 13.5 µM

Q: What about the TGI (NCI-H460 lung) of the same compound?
A: 36.2 µM

Q: And the GI50 (SN12C renal)?
A: 8.48 µM

Q: What about the TGI (SN12C renal) of the same compound?
A: 17.9 µM

Q: What about the GI50 (ACHN renal) of the same compound?
A: 8.38 µM

Q: What about the TGI (ACHN renal) of the same compound?
A: 16.9 µM

Q: And the GI50 (IGROV1 ovarian)?
A: 17.5 µM

Q: And the TGI (IGROV1 ovarian)?
A: > 50 µM

Q: What about the GI50 (SNB-19 CNS) of the same compound?
A: 11.8 µM

Q: What about the TGI (SNB-19 CNS) of the same compound?
A: 31.3 µM

Q: What about the GI50 (KM12 colon) of the same compound?
A: 9.69 µM

Q: What about the TGI (KM12 colon) of the same compound?
A: 19.8 µM

Q: And the GI50 (HL-60(TB) leukemia)?
A: 9.96 µM

Q: And the TGI (HL-60(TB) leukemia)?
A: 19 µM

Q: What about the GI50 (NCI-H23 lung) of the same compound?
A: 11.5 µM

Q: And the TGI (NCI-H23 lung)?
A: 26 µM

Q: What about the GI50 (SW-620 colon) of the same compound?
A: 23.7 µM

Q: What about the TGI (SW-620 colon) of the same compound?
A: > 50 µM

Q: And the GI50 (UO-31 renal)?
A: 10.3 µM

Q: And the TGI (UO-31 renal)?
A: 22.4 µM

Q: And the GI50 (RXF 393 renal)?
A: 9.81 µM

Q: What about the TGI (RXF 393 renal) of the same compound?
A: 23.9 µM

Q: What about the GI50 (TK-10 renal) of the same compound?
A: 11.7 µM

Q: What about the TGI (TK-10 renal) of the same compound?
A: 24.3 µM

Q: And the GI50 (UACC-62 melanoma)?
A: 8.9 µM

Q: What about the TGI (UACC-62 melanoma) of the same compound?
A: 16.9 µM

Q: What about the GI50 (MCF7 breast) of the same compound?
A: 16.4 µM

Q: And the TGI (MCF7 breast)?
A: > 50 µM

Q: And the GI50 (UACC-257 melanoma)?
A: 9.89 µM

Q: What about the TGI (UACC-257 melanoma) of the same compound?
A: 19.8 µM

Q: What about the GI50 (HS 578T breast) of the same compound?
A: 11.1 µM

Q: And the TGI (HS 578T breast)?
A: 25.1 µM

Q: And the GI50 (DU-145 prostate)?
A: 5.04 µM

Q: What about the TGI (DU-145 prostate) of the same compound?
A: 14.4 µM

Q: And the GI50 (SF-268 CNS)?
A: 9.72 µM

Q: And the TGI (SF-268 CNS)?
A: 22.8 µM

Q: And the GI50 (A498 renal)?
A: 25.1 µM

Q: What about the TGI (A498 renal) of the same compound?
A: > 50 µM

Q: And the GI50 (LOX IMVI melanoma)?
A: 17.9 µM

Q: And the TGI (LOX IMVI melanoma)?
A: > 50 µM
